According to ChEMBL document CHEMBL3739339, “Discovery of a series of 2-(pyridinyl)pyrimidines as potent antagonists of GPR40” (Medchemcomm, 2015):
Values after ≈ are worked out from the molar mass of the structure shown. Active and inactive are the calls of the source. The rule behind the calls is not given here.

Experiments:
[1] = molecular target: Free fatty acid receptor 1 (Homo sapiens, UniProt O14842); assay: Antagonist activity against human GPR40 expressed in HEK293s FLPIN cells assessed as elaidic acid stimulated IP1 release after 2 hrs by TR-FRET analysis; format: functional, cell-based
Sequence of Free fatty acid receptor 1 (Homo sapiens, UniProt O14842) (O14842 whole entry): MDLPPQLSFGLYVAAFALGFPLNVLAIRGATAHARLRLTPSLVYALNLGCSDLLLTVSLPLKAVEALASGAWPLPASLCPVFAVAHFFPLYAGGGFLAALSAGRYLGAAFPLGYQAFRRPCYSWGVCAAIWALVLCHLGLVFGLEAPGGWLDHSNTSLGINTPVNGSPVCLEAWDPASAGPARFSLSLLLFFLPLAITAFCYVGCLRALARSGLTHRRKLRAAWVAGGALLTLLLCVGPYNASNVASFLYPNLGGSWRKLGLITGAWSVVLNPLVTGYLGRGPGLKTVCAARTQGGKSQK

[2] = Lipophilicity, log D of the compound at pH 7.4; format: physicochemical; conditions: buffer
[3] = Solubility of compound; format: physicochemical
Hepatocyte = assay: Intrinsic clearance in rat hepatocytes measured per 10^6 cells; format: ADME, cell-based
Liver microsome = assay: Intrinsic clearance in human liver microsomes […]; format: ADME
[4] = molecular target: Free fatty acid receptor 1 (Rattus norvegicus, UniProt Q8K3T4); assay: Antagonist activity against rat GPR40
Sequence of Free fatty acid receptor 1 (Rattus norvegicus, UniProt Q8K3T4) (Q8K3T4 whole entry): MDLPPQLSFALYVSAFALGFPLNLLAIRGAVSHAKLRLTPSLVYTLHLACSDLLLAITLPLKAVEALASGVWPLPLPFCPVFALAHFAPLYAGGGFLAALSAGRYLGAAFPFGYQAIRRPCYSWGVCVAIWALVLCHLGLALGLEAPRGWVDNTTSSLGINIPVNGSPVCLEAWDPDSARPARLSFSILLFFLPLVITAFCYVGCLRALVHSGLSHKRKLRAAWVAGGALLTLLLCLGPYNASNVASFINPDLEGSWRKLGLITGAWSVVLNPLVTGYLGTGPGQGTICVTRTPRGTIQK

[5] = Fraction unbound in rat plasma; format: ADME, cell-free
[6] = Fraction unbound in human plasma; format: ADME, cell-free
[7] = Clearance in rat; format: ADME, organism-based; conditions: in vivo
Rattus norvegicus [8] = organism: Rattus norvegicus; assay: Unbound clearance in rat; format: ADME, organism-based; conditions: in vivo
[9] = Volume of distribution at steady state in rat; format: ADME, organism-based; conditions: in vivo, read-out: Vdss
[10] = Oral bioavailability in rat; format: ADME, organism-based; conditions: in vivo
[11] = Oral absorption in rat; format: ADME, organism-based; conditions: in vivo, read-out: Fabs
[12] = molecular target: T1, Free fatty acid receptor 2 (Homo sapiens) (UniProt O15552); assay: Antagonist activity at GPR43 (unkown origin)
T1 sequence (whole entry): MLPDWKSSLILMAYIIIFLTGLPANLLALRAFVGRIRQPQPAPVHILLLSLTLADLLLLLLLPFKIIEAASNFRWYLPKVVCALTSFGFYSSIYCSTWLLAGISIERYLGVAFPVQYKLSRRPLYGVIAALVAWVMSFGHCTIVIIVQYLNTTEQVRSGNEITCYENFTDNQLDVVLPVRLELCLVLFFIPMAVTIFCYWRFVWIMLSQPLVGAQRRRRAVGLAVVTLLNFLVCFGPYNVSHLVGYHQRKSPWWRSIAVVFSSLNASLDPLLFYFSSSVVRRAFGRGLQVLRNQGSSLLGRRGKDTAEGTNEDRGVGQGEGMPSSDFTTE

Rattus norvegicus [13] = assay: Inhibition of NEFA-driven plasma insulin level in male Zucker rat pretreated with beta3-agonist for 30 mins at 80 mg/kg measured 4 hrs post dosing by ELISA; format: functional
Rattus norvegicus [14] = assay: Effect on plasma insulin level in male Zucker rat at 80 mg/kg measured after 4 hrs by ELISA relative to vehicle control; format: ADME, organism-based; conditions: in vivo
Rattus norvegicus [15] = assay: Effect on plasma NEFA level in male Zucker rat at 80 mg/kg measured 4 hrs by ELISA assay relative to vehicle control; format: ADME, organism-based; conditions: in vivo
[16] = molecular target: Free fatty acid receptor 1 (Mus musculus) (UniProt Q76JU9); assay: Antagonist activity against mouse GPR40
Sequence of Free fatty acid receptor 1 (Mus musculus) (Q76JU9 whole entry): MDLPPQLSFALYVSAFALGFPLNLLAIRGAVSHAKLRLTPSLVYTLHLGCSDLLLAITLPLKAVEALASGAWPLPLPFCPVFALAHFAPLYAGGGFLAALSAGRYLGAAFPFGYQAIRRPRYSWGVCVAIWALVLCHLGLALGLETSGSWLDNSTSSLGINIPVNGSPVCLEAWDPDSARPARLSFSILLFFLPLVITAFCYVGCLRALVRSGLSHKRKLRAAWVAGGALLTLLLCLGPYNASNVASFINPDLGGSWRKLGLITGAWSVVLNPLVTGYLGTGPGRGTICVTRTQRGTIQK

Row | IC50 [1] [nM] | logD [2] | SMILES | also measured
1 | 10000 | 2.7 | Cc1cc(COc2ccccc2C#N)nc(-c2ccccn2)n1 | 
2 | 1580 | 3.6 | CN(C)c1cc(COc2cccc(F)c2)nc(-c2ccccn2)n1 | 
3 | 794 | 3.4 | Cc1cc(COc2ccccc2)nc(-c2ccccn2)n1 | 
4 | 31600 | 2.6 | Cc1cc(COc2ccc(C#N)cc2)nc(-c2ccccn2)n1 | 
5 | 398 | 3.2 | Cc1cc(COc2cccc(F)c2F)nc(-c2ccccn2)n1 | 
6 | 398 | 2.9 | Cc1cc(COc2ccccc2F)nc(-c2ccccn2)n1 | 
7 | 1260 | 3.6 | COc1cc(COc2cccc(F)c2)nc(-c2ccccn2)n1 | 
8 | 398 | 3.4 | Cc1cc(COc2cc(F)c(F)c(F)c2)nc(-c2ccccn2)n1 | 
9 | > 39800 | 1.5 | Cc1cc(COc2ccc(S(C)(=O)=O)cc2)nc(-c2ccccn2)n1 | 
10 | 251 | 3.3 | Cc1cc(COc2ccc(F)c(F)c2F)nc(-c2ccccn2)n1 | solubility [3]: 22 µM (≈ 7.29 µg/mL); CLint (Hepatocyte): 17 µL/min/1e6 cells; CLint (Liver microsome): 57 µL/min/mg; IC50 [4]: 200 nM; fraction unbound [5]: 0.063; fraction unbound [6]: 0.03; clearance [7]: 24 mL/min/kg; CL free (Rattus norvegicus [8]): 380 mL/min/kg; Vd [9]: 2.3 L/kg; bioavailability [10]: 39%; Fa [11]: 59%
11 | 251 | 3.7 | Cc1cc(COc2ccc(Cl)cc2)nc(-c2ccccn2)n1 | 
12 | 2000 | 2.5 | COc1ccccc1OCc1cc(C)nc(-c2ccccn2)n1 | 
13 | 100 | 4.3 | CC(C)Nc1cc(COc2cccc(F)c2)nc(-c2ccccn2)n1 | 
14 | > 39800 | 1.6 | CC(=O)Nc1ccccc1OCc1cc(C)nc(-c2ccccn2)n1 | 
15 | > 39800 | 2.1 | CC(=O)Nc1cccc(OCc2cc(C)nc(-c3ccccn3)n2)c1 | 
16 | 398 | 3.1 | Cc1cc(COc2ccc(F)cc2F)nc(-c2ccccn2)n1 | 
17 | 631 | 3 | Cc1cc(COc2ccc(F)cc2)nc(-c2ccccn2)n1 | 
18 | 2000 | 2.9 | COc1cccc(OCc2cc(C)nc(-c3ccccn3)n2)c1 | 
19 | > 39800 | 1.5 | Cc1cc(COc2ccccc2S(C)(=O)=O)nc(-c2ccccn2)n1 | 
20 | 316 | 3.4 | Cc1cc(COc2ccccc2Cl)nc(-c2ccccn2)n1 | 
21 | 7940 | 2.8 | COc1ccc(OCc2cc(C)nc(-c3ccccn3)n2)cc1 | 
22 | 501 | 3.2 | Cc1cc(COc2ccc(F)c(F)c2)nc(-c2ccccn2)n1 | 
23 | > 39800 | 1.7 | Cc1cc(COc2cccc(S(C)(=O)=O)c2)nc(-c2ccccn2)n1 | 
24 | 398 | 3.7 | Cc1cc(COc2cccc(Cl)c2)nc(-c2ccccn2)n1 | 
25 | > 39800 | 1.9 | CC(=O)Nc1ccc(OCc2cc(C)nc(-c3ccccn3)n2)cc1 | 
26 | 2510 | 2.7 | Cc1cc(COc2cccc(C#N)c2)nc(-c2ccccn2)n1 | 
27 | 794 | 3.1 | Cc1cc(COc2cccc(F)c2)nc(-c2ccccn2)n1 | 
28 | 1580 | 3.1 | Cc1cc(COc2c(F)ccc(F)c2F)nc(-c2ccccn2)n1 | 

The remaining lines, values behind:

Row | SMILES | IC50 [1] [nM] | logD [2] | also measured
29 | Cc1cc(N/N=C/c2ccccc2)nc(-c2ccccc2)n1 | 251 | 4.3 | solubility [3]: < 0.3 µM
30 | Cc1cc(COc2c(F)cc(F)cc2F)nc(-c2ccccn2)n1 | 1260 | 3.2 | 
31 | OC1CN(c2cc(COc3ccc(F)c(F)c3F)nc(-c3ccccn3)n2)C1 | 3160 | 2.8 | 
32 | COC1(COc2cc(COc3ccc(F)c(F)c3F)nc(-c3ccccn3)n2)COC1 | 501 | 3.5 | 
33 | Fc1ccc(OCc2cc(OCC(F)(F)F)nc(-c3ccccn3)n2)c(F)c1F | 7.94 | > 4.9 | 
34 | Fc1ccc(OCc2cc(N3CC4(CCO4)C3)nc(-c3ccccn3)n2)c(F)c1F | 501 | 3.3 | 
35 | CC1(COc2cc(COc3ccc(F)c(F)c3F)nc(-c3ccccn3)n2)COC1 | 79.4 | 4 | 
36 | Fc1ccc(OCc2cc(OCC3CCC3)nc(-c3ccccn3)n2)c(F)c1F | 12.6 | 4.5 | 
37 | c1ccc(OCc2cc(N3CCOCC3)nc(-c3ccccn3)n2)cc1 | 631 | 2.8 | 
38 | Cc1cc(COc2cc(F)c(F)cc2F)nc(-c2ccccn2)n1 | 398 | 3.2 | 
39 | Fc1ccc(OCc2cc(OCC3COC3)nc(-c3ccccn3)n2)c(F)c1F | 316 | 3.7 | 
40 | CC1(C#N)CN(c2cc(COc3ccc(F)c(F)c3F)nc(-c3ccccn3)n2)C1 | 158 | 3.3 | solubility [3]: 2.9 µM (≈ 1.19 µg/mL); CLint (Hepatocyte): 26 µL/min/1e6 cells; CLint (Liver microsome): 52 µL/min/mg; IC50 [4]: 63.1 nM; fraction unbound [5]: 0.056; fraction unbound [6]: 0.048; clearance [7]: 30 mL/min/kg; CL free (Rattus norvegicus [8]): 540 mL/min/kg; Vd [9]: 3 L/kg; bioavailability [10]: 32%; Fa [11]: 56%; inhibition [12]: inactive; inhibition in vivo at 80 mg/kg (Rattus norvegicus [13]): 70%; Activity (Rattus norvegicus [14]): Non-toxic; Activity (Rattus norvegicus [15]): Non-toxic; inhibition [16]: Active
41 | CCOc1cc(COc2cccc(F)c2)nc(-c2ccccn2)n1 | 251 | 4.1 | 
42 | Cc1cc(COc2cc(F)cc(F)c2F)nc(-c2ccccn2)n1 | 501 | 3.4 | 
43 | CC1(CS(C)(=O)=O)CN(c2cc(COc3ccc(F)c(F)c3F)nc(-c3ccccn3)n2)C1 | 6310 | 2.9 | 
44 | N#CCC1(COc2cc(COc3ccc(F)c(F)c3F)nc(-c3ccccn3)n2)COC1 | 398 | 3.3 | 
45 | CC1(C)CN(c2cc(COc3ccc(F)c(F)c3F)nc(-c3ccccn3)n2)C1 | 25.1 | 4.3 | 
46 | Fc1ccc(OCc2cc(OCC3(F)COC3)nc(-c3ccccn3)n2)c(F)c1F |  | 4 | solubility [3]: 2.9 µM (≈ 1.22 µg/mL); CLint (Hepatocyte): 72 µL/min/1e6 cells; CLint (Liver microsome): 56 µL/min/mg; IC50 [4]: 31.6 nM; fraction unbound [5]: 0.017; fraction unbound [6]: 0.015; clearance [7]: 19 mL/min/kg; CL free (Rattus norvegicus [8]): 1100 mL/min/kg; Vd [9]: 1.4 L/kg; bioavailability [10]: 12%; Fa [11]: 16%
47 | CCNc1cc(COc2cccc(F)c2)nc(-c2ccccn2)n1 | 631 | 3.9 | 
